The values that follow come from patent publication US9650334B2 (AbbVie Deutschland GmbH & Co. KG, priority 2013, dated 2017).

For orientation: Ki means a dissociation constant, usually derived from enzyme kinetics or from competition with a known ligand.

One experiment concerns the target T1, human GlyT1c transporter (Homo sapiens, UniProt P48067).
T1 sequence (P48067 1-706): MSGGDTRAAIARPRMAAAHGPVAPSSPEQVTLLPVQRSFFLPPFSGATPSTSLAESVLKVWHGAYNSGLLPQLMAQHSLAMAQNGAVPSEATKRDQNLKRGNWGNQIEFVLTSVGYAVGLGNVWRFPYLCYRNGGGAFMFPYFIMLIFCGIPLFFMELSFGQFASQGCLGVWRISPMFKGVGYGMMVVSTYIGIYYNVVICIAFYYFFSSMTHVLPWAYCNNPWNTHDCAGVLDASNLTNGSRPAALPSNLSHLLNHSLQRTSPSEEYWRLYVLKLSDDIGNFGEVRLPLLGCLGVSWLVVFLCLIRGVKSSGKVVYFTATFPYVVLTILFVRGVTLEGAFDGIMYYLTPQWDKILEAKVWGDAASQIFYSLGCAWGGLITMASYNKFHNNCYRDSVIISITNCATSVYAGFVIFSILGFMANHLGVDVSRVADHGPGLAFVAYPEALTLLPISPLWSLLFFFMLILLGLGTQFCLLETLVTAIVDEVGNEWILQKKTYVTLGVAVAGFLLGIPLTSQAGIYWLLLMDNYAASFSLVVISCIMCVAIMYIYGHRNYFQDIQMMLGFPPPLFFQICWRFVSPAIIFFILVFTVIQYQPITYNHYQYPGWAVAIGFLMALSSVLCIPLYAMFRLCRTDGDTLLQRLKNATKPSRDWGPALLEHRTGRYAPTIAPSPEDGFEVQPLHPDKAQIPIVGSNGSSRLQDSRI
Nature of the experiment: Radioligand binding assays using recombinant CHO cell membranes expressing human GlyT1. The conditions noted are these: Ki, radioligand binding to human GlyT1c transporter-expressing CHO cell membranes.
On to `Cn1cnc(S(=O)(=O)N2C[C@H](Nc3ccc(F)c(Cl)c3)[C@@H](C3OCCCO3)C2)c1` [Example 916, (3R,4S)-N-(3-chloro-4-fluorophenyl)-4-(1,3-dioxan-2-yl)-1-[(1-methyl-1H-imidazol-4-yl)sulfonyl]pyrrolidin-3-amine], for which the Ki was at most 100 nM.
Still for that read-out and setting: to `Cn1cnc(S(=O)(=O)N2CC3CCCCC3(NCc3ccc(C(F)(F)F)cc3)C2)c1` (stereo not drawn) [Example 884, 2-[(1-methyl-1H-imidazol-4-yl)sulfonyl]-N-[4-(trifluoromethyl)benzyl]octahydro-3aH-isoindol-3a-amine] belongs at most 100 nM.
For `Cn1cnc(S(=O)(=O)N2C[C@H](NCc3ccc(F)cc3)[C@@H](C3OCCCO3)C2)c1` [Example 906, (3R,4S)-4-(1,3-dioxan-2-yl)-N-(4-fluorobenzyl)-1-[(1-methyl-1H-imidazol-4-yl)sulfonyl]pyrrolidin-3-amine], the Ki was at most 1000 nM.
As for `CCS(=O)(=O)N1C[C@@H](NC(=O)c2ccc(C(F)(F)F)cc2)[C@H](c2ccccc2)C1` (relative stereo) [Example 122, N-[trans-1-(ethylsulfonyl)-4-phenylpyrrolidin-3-yl]-4-(trifluoromethyl)benzamide], the Ki was at most 10000 nM.
Turning to `CCCCCCN1CCCC2CN(S(=O)(=O)c3cn(C)cn3)CC21` (stereo not drawn) [Example 872, 1-hexyl-6-[(1-methyl-1H-imidazol-4-yl)sulfonyl]octahydro-1H-pyrrolo[3,4-b]pyridine], the Ki is above 10000 nM.
Take `Cn1cnc(S(=O)(=O)N2C[C@@H](c3ccccc3)[C@](CO)(NCc3ccc(C(F)(F)F)cc3)C2)c1` (relative stereo) [Example 401]: the Ki was at most 10000 nM.
`Cn1cnc(S(=O)(=O)N2C[C@H](NCCCCC3OCC(C)(C)CO3)[C@@H](c3ccc(F)cc3)C2)c1` [Example 684]: the Ki is at most 1000 nM.
The same measure, in the same setting: to `Cn1cnc(S(=O)(=O)N2C[C@H](c3ccc(F)cc3)[C@@H](N3C(=O)Cc4ccccc43)C2)c1` [Example 883, 1-{(3R,4S)-4-(4-fluorophenyl)-1-[(1-methyl-1H-imidazol-4-yl)sulfonyl]pyrrolidin-3-yl}-1,3-dihydro-2H-indol-2-one] belongs at most 10000 nM; to `Cn1cnc(S(=O)(=O)N2C[C@H](Nc3cccc(Cl)c3)[C@@H](C3OCCCO3)C2)c1` [Example 914, (3R,4S)-N-(3-chlorophenyl)-4-(1,3-dioxan-2-yl)-1-[(1-methyl-1H-imidazol-4-yl)sulfonyl]pyrrolidin-3-amine], at most 10 nM.
Still for that read-out and setting: to `Cn1cnc(S(=O)(=O)N2C[C@H](Nc3cccc(OC(F)(F)F)c3)[C@@H](C3OCC4(CC4)CO3)C2)c1` [Example 920, (3R,4S)-4-(5,7-dioxaspiro[2.5]oct-6-yl)-1-[(1-methyl-1H-imidazol-4-yl)sulfonyl]-N-[3-(trifluoromethoxy)phenyl]pyrrolidin-3-amine] belongs at most 10 nM; to `Cc1nc(CN[C@H]2CN(S(=O)(=O)c3cn(C)cn3)C[C@@H]2c2ccccc2)sc1Br` [Example 559, (3R,4S)-N-[(5-bromo-4-methyl-1,3-thiazol-2-yl)methyl]-1-[(1-methyl-1H-imidazol-4-yl)sulfonyl]-4-phenylpyrrolidin-3-amine], at most 1000 nM.
Still for that read-out and setting: to `Cc1cccc(N[C@H]2CN(S(=O)(=O)c3cn(C)cn3)C[C@@H]2C2OCCCO2)c1` [Example 917, (3R,4S)-4-(1,3-dioxan-2-yl)-1-[(1-methyl-1H-imidazol-4-yl)sulfonyl]-N-(3-methylphenyl)pyrrolidin-3-amine] belongs at most 100 nM.
With `CCCCc1cn([C@H]2CN(S(=O)(=O)c3cn(C)cn3)C[C@@H]2c2ccccc2)nn1` [Example 668, 4-butyl-1-{(3R,4S)-1-[(1-methyl-1H-imidazol-4-yl)sulfonyl]-4-phenylpyrrolidin-3-yl}-1H-1,2,3-triazole], the Ki was at most 10000 nM.
Regarding `Cn1cc(S(=O)(=O)N2C[C@H](Nc3cccc(OC(F)(F)F)c3)[C@@H](C3OCCCO3)C2)nn1` [Example 896, (3R,4S)-4-(1,3-dioxan-2-yl)-1-[(1-methyl-1H-1,2,3-triazol-4-yl)sulfonyl]-N-[3-(trifluoromethoxy)phenyl]pyrrolidin-3-amine], the Ki was at most 10 nM.
As to `CN1CCCCC1C1CN(S(=O)(=O)c2cn(C)cn2)CC1NC1CCc2ccccc21` (stereo not drawn) [Example 893, N-(2,3-dihydro-1H-inden-1-yl)-1-[(1-methyl-1H-imidazol-4-yl)sulfonyl]-4-(1-methylpiperidin-2-yl)pyrrolidin-3-amine], the inhibition constant Ki is at most 100 nM.
With `Cn1cnc(S(=O)(=O)N2C[C@@H]3c4ccccc4C[C@@]3(NCc3ccc(C(F)(F)F)cc3Cl)C2)c1` (relative stereo) [Example 885, trans-N-[2-chloro-4-(trifluoromethyl)benzyl]-2-[(1-methyl-1H-imidazol-4-yl)sulfonyl]-2,3,3a,8-tetrahydroindeno[1,2-c]pyrrol-8a(1H)-amine], the Ki is at most 100 nM.
On the same count and under the same terms, to `Cn1cnc(S(=O)(=O)N2CC3CCCN(Cc4ccc(C(F)(F)F)cc4Cl)C3C2)c1` (stereo not drawn) [Example 879, 1-[2-chloro-4-(trifluoromethyl)benzyl]-6-[(1-methyl-1H-imidazol-4-yl)sulfonyl]octahydro-1H-pyrrolo[3,4-b]pyridine] belongs at most 1000 nM; to `Cn1cnc(S(=O)(=O)N2C[C@H](Nc3cc(OCC(F)(F)F)ccn3)[C@@H](c3ccccc3)C2)c1` [Example 809, N-{(3R,4S)-1-[(1-methyl-1H-imidazol-4-yl)sulfonyl]-4-phenylpyrrolidin-3-yl}-4-(2,2,2-trifluoroethoxy)pyridin-2-amine], at most 10 nM.
On the same count and under the same terms, to `Cc1cc(N[C@H]2CN(S(=O)(=O)c3cn(C)cn3)C[C@@H]2C2OCCCO2)ccc1F` [Example 923, (3R,4S)-4-(1,3-dioxan-2-yl)-N-(4-fluoro-3-methylphenyl)-1-[(1-methyl-1H-imidazol-4-yl)sulfonyl]pyrrolidin-3-amine] belongs at most 100 nM; to `Cn1cnc(S(=O)(=O)N2CC(Nc3ccc(F)c(C(F)(F)F)c3)C(c3ccc(F)cn3)C2)c1` (stereo not drawn) [Example 927, 4-(5-fluoropyridin-2-yl)-N-[4-fluoro-3-(trifluoromethyl)phenyl]-1-[(1-methyl-1H-imidazol-4-yl)sulfonyl]pyrrolidin-3-amine], at most 10 nM; to `Cn1cnc(S(=O)(=O)N2CC(COc3ccc(F)cc3)C(c3ccccn3)C2)c1` (stereo not drawn) [Example 886, 2-{4-[(4-fluorophenoxy)methyl]-1-[(1-methyl-1H-imidazol-4-yl)sulfonyl]pyrrolidin-3-yl}pyridine], at most 1000 nM.
Turning to `Cc1cccc(CN[C@@H]2CN(S(=O)(=O)c3cn(C)cn3)C[C@H]2c2ccc(F)cc2)c1` (relative stereo) [Example 154, trans-4-(4-fluorophenyl)-N-(3-methylbenzyl)-1-[(1-methyl-1H-imidazol-4-yl)sulfonyl]pyrrolidin-3-amine], the Ki is at most 100 nM.
Still for that read-out and setting: to `Cn1cnc(S(=O)(=O)N2C[C@H](Nc3cc(C(F)(F)F)c(Cl)cn3)[C@@H](C3OCCCO3)C2)c1` [Example 911, 5-chloro-N-{(3R,4S)-4-(1,3-dioxan-2-yl)-1-[(1-methyl-1H-imidazol-4-yl)sulfonyl]pyrrolidin-3-yl}-4-(trifluoromethyl)pyridin-2-amine] belongs at most 10 nM; to `Cn1cnc(S(=O)(=O)N2CC(C(=O)NCc3ccc(F)c(F)c3)C3(CCCCC3)C2)c1` (stereo not drawn) [Example 882, N-(3,4-difluorobenzyl)-2-[(1-methyl-1H-imidazol-4-yl)sulfonyl]-2-azaspiro[4.5]decane-4-carboxamide], at most 1000 nM; to `Cn1cnc(S(=O)(=O)N2C[C@H](Nc3cccc(OCC(F)(F)F)c3)[C@@H](C3OCCCO3)C2)c1` [Example 899, (3R,4S)-4-(1,3-dioxan-2-yl)-1-[(1-methyl-1H-imidazol-4-yl)sulfonyl]-N-[3-(2,2,2-trifluoroethoxy)phenyl]pyrrolidin-3-amine], at most 100 nM.
On to `CCCCCN(CCCCC)[C@H]1CN(S(=O)(=O)c2cn(C)cn2)C[C@@H]1C1OCCCO1` [Example 908, (3R,4S)-4-(1,3-dioxan-2-yl)-1-[(1-methyl-1H-imidazol-4-yl)sulfonyl]-N,N-dipentylpyrrolidin-3-amine], for which the Ki was at most 10000 nM.
`Cc1cccc(C(N[C@H]2CN(S(=O)(=O)c3cn(C)cn3)C[C@@H]2c2ccc(F)cc2)C(F)(F)F)c1` (stereo partly drawn) [Example 875, (3R,4S)-4-(4-fluorophenyl)-1-[(1-methyl-1H-imidazol-4-yl)sulfonyl]-N-[2,2,2-trifluoro-1-(3-methylphenyl)ethyl]pyrrolidin-3-amine]: the Ki is at most 10000 nM.

Staying with this experiment, now noted: radioligand binding to human GlyT1c transporter-expressing CHO cell membranes.
Regarding “2,2-difluoro-N-{(3R,4S)-4-(4-fluorophenyl)-1-[(1-methyl-1H-imidazol-4-yl)sulfonyl]pyrrolidin-3-yl}pentanamide [Example 700]”, the Ki was at most 10000 nM.
Consider “6-butoxy-N-{(3R,4S)-4-(4-fluorophenyl)-1-[(1-methyl-1H-imidazol-4-yl)sulfonyl]pyrrolidin-3-yl}pyrimidin-4-amine [Example 717]”, for which the Ki was at most 100 nM.
On the same count and under the same terms, in the case of “(3R,4S)-N-[2-chloro-4-(trifluoromethyl)benzyl]-1-[(1-methyl-1H-imidazol-4-yl)sulfonyl]-4-phenylpyrrolidin-3-amine [Example 394]” it was at most 10 nM.
